From patent publication US9388151B2, “Methods for producing 5-(halomethyl) furfural” (MICROMIDAS, INC., priority 2012, dated 2016)

Description: The amount of solvent and CMF used are detailed in Table 1.
Once the vials were filled and sealed, each vial was held at the temperatures listed in Table 1 above for 20-30 minutes, at which time a sample was taken and analyzed by HPLC.
An aliquot was analyzed by HPLC. The following HPLC protocol was used. The column was an Agilent Technologies RX-Sil silica column; 4.6×100 mm packed with 1.8 micron silica beads. Column temperature was maintained at 50° C. Injection volume was 1.0 microliter. Mobile phase composition was 80% hexane and 20% tetrahydrofuran flowing at 1.0 mL/min.

For `CCCCCC` [Hexane], which “solubility for CMF” value is on record?
The value was “relatively low solubility”.

For `CCCCC` [Pentane], which “solubility for CMF” value is on record?
The value was “relatively low solubility”.

For `CCCCCCCCCC` [Decane], which “solubility for CMF” value is on record?
The value was “relatively low solubility”.

For `CCCCCCCCCCCCCC` [Tetradecane], which “solubility for CMF” value is on record?
The value was “relatively low solubility”.

For `CCCCCCCCCCCCCCCCCCCC` [Eicosane], which “solubility for CMF” value is on record?
Its value is “relatively low solubility”.

Which “solubility for CMF” value does the source give for `Clc1ccccc1` [Chlorobenzene] here?
Its value is “relatively soluble”.
